From ChEMBL document CHEMBL1201862, “PubChem BioAssay data set” (2004)
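Protocol summary: plate cells (96-well), add compound at 5 concentrations, incubate 48 h, interpolate endpoints linearly. GI50 marks 50% less growth.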 Calls of active or inactive are those of the source. Rule as the data show it: active = GI50 up to about 1.1 µM and inactive = higher.

Legend:
Experiment in all cases: NCI-60 cell line screen, 48 h
[1] = test system: 786-0
[2] = test system: A498
[3] = test system: A549
[4] = test system: ACHN
[5] = test system: BT-549
[6] = test system: CAKI-1
[7] = test system: CCRF-CEM
[8] = test system: COLO 205
[9] = test system: DU-145
[10] = test system: EKVX
[11] = test system: HCT-116
[12] = test system: HCT-15
[13] = test system: HL-60
[14] = test system: HOP-92
[15] = test system: HT-29
[16] = test system: Hs-578T
[17] = test system: IGROV-1
[18] = test system: K562
[19] = test system: KM12
[20] = test system: LOX IMVI
[21] = test system: M14
[22] = test system: MCF7
[23] = test system: MDA-MB-231
[24] = test system: MDA-MB-435
[25] = test system: MDA-N
[26] = test system: MOLT-4
[27] = test system: NCI-H226
[28] = test system: NCI-H23
[29] = test system: NCI-H460
[30] = test system: NCI-H522
[31] = test system: NCI/ADR-RES
[32] = test system: OVCAR-3
[33] = test system: OVCAR-4
[34] = test system: OVCAR-5
[35] = test system: OVCAR-8
[36] = test system: PC-3
[37] = test system: RPMI-8226
[38] = test system: RXF 393
[39] = test system: SF-268
[40] = test system: SF-295
[41] = test system: SF-539
[42] = test system: SK-MEL-2
[43] = test system: SK-MEL-5
[44] = test system: SK-OV-3
[45] = test system: SN12C
[46] = test system: SNB-19
[47] = test system: SNB-75
[48] = test system: SR
[49] = test system: SW-620
[50] = test system: T47D
[51] = test system: TK-10
[52] = test system: U-251
[53] = test system: UACC-257
[54] = test system: UACC-62
[55] = test system: UO-31
[56] = test system: HCC 2998
[57] = test system: HOP-62
[58] = test system: SK-MEL-28
[59] = test system: Malme-3M

CCCCCCCCCCCCCCCCOC[C@@H](COC(c1ccccc1)(c1ccccc1)c1ccccc1)O[PH](=S)OC (some centres undefined)
GI50 [1]: 6.49 µM (inactive)
GI50 [2]: 11.5 µM (inactive)
GI50 [3]: 5.61 µM (inactive)
GI50 [4]: 15.7 µM (inactive)
GI50 [5]: 3.35 µM (inactive)
GI50 [6]: 11.6 µM (inactive)
GI50 [7]: 11.7 µM (inactive)
GI50 [8]: 17.9 µM (inactive)
GI50 [9]: 17 µM (inactive)
GI50 [10]: 13.6 µM (inactive)
GI50 [11]: 3.86 µM (inactive)
GI50 [12]: 10.6 µM
GI50 [13]: 14.8 µM (inactive)
GI50 [14]: 12.4 µM (inactive)
GI50 [15]: 16.8 µM (inactive)
GI50 [16]: 15.5 µM (inactive)
GI50 [17]: 13.7 µM (inactive)
GI50 [18]: 16.4 µM (inactive)
GI50 [19]: 4.3 µM (inactive)
GI50 [20]: 2.98 µM (inactive)
GI50 [21]: 3.3 µM (inactive)
GI50 [22]: 7.43 µM (inactive)
GI50 [23]: 2.28 µM (inactive)
GI50 [24]: 2.24 µM (inactive)
GI50 [25]: 2.24 µM (inactive)
GI50 [26]: 20.4 µM (inactive)
GI50 [27]: 19.1 µM (inactive)
GI50 [28]: 10.9 µM (inactive)
GI50 [29]: 1.6 µM (inactive)
GI50 [30]: 10.2 µM (inactive)
GI50 [31]: 22.6 µM (inactive)
GI50 [32]: 13.2 µM (inactive)
GI50 [33]: 9.35 µM (inactive)
GI50 [34]: 10.8 µM (inactive)
GI50 [35]: 12.1 µM (inactive)
GI50 [36]: 5.32 µM (inactive)
GI50 [37]: 3.4 µM (inactive)
GI50 [38]: 7.53 µM (inactive)
GI50 [39]: 9.25 µM (inactive)
GI50 [40]: 1.41 µM (inactive)
GI50 [41]: 2.82 µM (inactive)
GI50 [42]: 11.1 µM (inactive)
GI50 [43]: 4.81 µM (inactive)
GI50 [44]: 5.68 µM (inactive)
GI50 [45]: 5.32 µM (inactive)
GI50 [46]: 4.79 µM (inactive)
GI50 [47]: 10.3 µM (inactive)
GI50 [48]: 2.33 µM (inactive)
GI50 [49]: 16.1 µM (inactive)
GI50 [50]: 16.2 µM (inactive)
GI50 [51]: 11.5 µM (inactive)
GI50 [52]: 4.04 µM (inactive)
GI50 [53]: 11.6 µM (inactive)
GI50 [54]: 3.81 µM (inactive)
GI50 [55]: 16.4 µM (inactive)

N#Cc1c(=O)c2cccnc2n2c1[nH]c1ccccc12
GI50 [1]: 32.1 µM (inactive)
GI50 [2]: 77.3 µM (inactive)
GI50 [3]: > 100 µM (inactive)
GI50 [4]: 42.1 µM (inactive)
GI50 [5]: 57.3 µM (inactive)
GI50 [6]: > 100 µM (inactive)
GI50 [7]: > 100 µM (inactive)
GI50 [8]: > 100 µM (inactive)
GI50 [9]: > 100 µM (inactive)
GI50 [10]: 85.9 µM (inactive)
GI50 [56]: > 100 µM (inactive)
GI50 [11]: 91.4 µM (inactive)
GI50 [12]: 98.2 µM
GI50 [13]: > 100 µM (inactive)
GI50 [57]: 41.4 µM (inactive)
GI50 [14]: 22.6 µM (inactive)
GI50 [15]: > 100 µM (inactive)
GI50 [16]: 21.6 µM (inactive)
GI50 [17]: > 100 µM (inactive)
GI50 [18]: > 100 µM (inactive)
GI50 [19]: 80.7 µM (inactive)
GI50 [20]: > 100 µM (inactive)
GI50 [21]: 90.2 µM (inactive)
GI50 [22]: > 100 µM (inactive)
GI50 [23]: 27 µM (inactive)
GI50 [24]: > 100 µM (inactive)
GI50 [25]: > 100 µM (inactive)
GI50 [26]: > 100 µM (inactive)
GI50 [27]: 66.5 µM (inactive)
GI50 [28]: 38.7 µM (inactive)
GI50 [29]: 69.2 µM (inactive)
GI50 [31]: 64.6 µM (inactive)
GI50 [32]: 78 µM (inactive)
GI50 [33]: > 100 µM (inactive)
GI50 [34]: > 100 µM (inactive)
GI50 [35]: 66.7 µM (inactive)
GI50 [36]: > 100 µM (inactive)
GI50 [37]: > 100 µM (inactive)
GI50 [38]: 74.1 µM (inactive)
GI50 [39]: 49.1 µM (inactive)
GI50 [40]: 49.3 µM (inactive)
GI50 [41]: 55.8 µM (inactive)
GI50 [58]: > 100 µM (inactive)
GI50 [42]: > 100 µM (inactive)
GI50 [44]: 52.8 µM (inactive)
GI50 [45]: > 100 µM (inactive)
GI50 [46]: 57.7 µM (inactive)
GI50 [47]: 50.5 µM (inactive)
GI50 [48]: > 100 µM (inactive)
GI50 [49]: > 100 µM (inactive)
GI50 [50]: > 100 µM (inactive)
GI50 [51]: 55.5 µM (inactive)
GI50 [52]: 38.6 µM (inactive)
GI50 [53]: > 100 µM (inactive)
GI50 [54]: > 100 µM (inactive)
GI50 [55]: 48.6 µM (inactive)

COc1cc2c(cc1OC)C13CCN4C=C5CCOC6CC(=O)N2C1C6C5CC43 (centres undefined)
GI50 [1]: > 100 µM (inactive)
GI50 [2]: > 100 µM (inactive)
GI50 [3]: > 100 µM (inactive)
GI50 [4]: > 100 µM (inactive)
GI50 [5]: > 100 µM (inactive)
GI50 [6]: > 100 µM (inactive)
GI50 [7]: > 100 µM (inactive)
GI50 [8]: > 100 µM (inactive)
GI50 [9]: > 100 µM (inactive)
GI50 [10]: > 100 µM (inactive)
GI50 [11]: > 100 µM (inactive)
GI50 [12]: > 100 µM
GI50 [13]: > 100 µM (inactive)
GI50 [57]: > 100 µM (inactive)
GI50 [14]: > 100 µM (inactive)
GI50 [15]: > 100 µM (inactive)
GI50 [16]: > 100 µM (inactive)
GI50 [17]: > 100 µM (inactive)
GI50 [18]: > 100 µM (inactive)
GI50 [19]: > 100 µM (inactive)
GI50 [20]: > 100 µM (inactive)
GI50 [21]: > 100 µM (inactive)
GI50 [22]: > 100 µM (inactive)
GI50 [23]: > 100 µM (inactive)
GI50 [24]: > 100 µM (inactive)
GI50 [25]: > 100 µM (inactive)
GI50 [26]: > 100 µM (inactive)
GI50 [59]: > 100 µM (inactive)
GI50 [27]: > 100 µM (inactive)
GI50 [28]: > 100 µM (inactive)
GI50 [29]: > 100 µM (inactive)
GI50 [30]: > 100 µM (inactive)
GI50 [31]: > 100 µM (inactive)
GI50 [32]: > 100 µM (inactive)
GI50 [33]: > 100 µM (inactive)
GI50 [34]: > 100 µM (inactive)
GI50 [35]: > 100 µM (inactive)
GI50 [36]: > 100 µM (inactive)
GI50 [37]: > 100 µM (inactive)
GI50 [38]: > 100 µM (inactive)
GI50 [39]: > 100 µM (inactive)
GI50 [40]: > 100 µM (inactive)
GI50 [41]: > 100 µM (inactive)
GI50 [58]: > 100 µM (inactive)
GI50 [42]: > 100 µM (inactive)
GI50 [43]: > 100 µM (inactive)
GI50 [44]: > 100 µM (inactive)
GI50 [45]: > 100 µM (inactive)
GI50 [46]: > 100 µM (inactive)
GI50 [47]: > 100 µM (inactive)
GI50 [48]: > 100 µM (inactive)
GI50 [49]: > 100 µM (inactive)
GI50 [50]: > 100 µM (inactive)
GI50 [51]: > 100 µM (inactive)
GI50 [52]: > 100 µM (inactive)
GI50 [53]: > 100 µM (inactive)
GI50 [54]: > 100 µM (inactive)
GI50 [55]: > 100 µM (inactive)
